Where two headings read alike, the source gives them in different places.
How the values were obtained:
[1] = Mouse plasma exposure after oral and intravenous administration, brain and kidney distribution; assay type: in vivo, CD1 mouse; conditions: for Kp: CD1, mouse, relative to plasma; for half-life: read-out: T ½ in plasma
Procedure: APHAD S.r.l (Buccinasco, MI, Italy) performed all evaluations. Detailed protocols are reported in the extended methods section.
Determination of the mouse plasma exposure of K5 after oral […] and intravenous (IV) administration. Determination of K5 distribution in brain and kidney after IV administration. Weighed tissues were homogenized with a Precellys Evolution Homogenizer 1g/5mL of 20 mM ammonium formate buffer pH 6.5 using 3 cycles 25 sec at a speed of 7600 rpm. Plasma or tissue was added to ACN containing Verapamil as Internal standard (0.1 µM) in a […]. Samples were shaken for 10 min at 300 rpm at RT and centrifuged for 15 min at 10°C at 4700 rpm. Working solutions (WS) for the calibration curves and QC samples were prepared by diluting ACN in the range 10-20000ng/mL range. Verapamil was diluted in ACN to reach the final concentration of 0.1 µM (WS_IS). Samples were analyzed on an Acquity UPLC (Waters) coupled with an API 3200 Triple Quadrupole ABSciex. Non-compartmental analysis was applied, and the following pharmacokinetic (PK) parameters were evaluated for each subject or group of subjects: maximum plasma concentration (Cmax), plasma concentration at last timepoint (Clast), time of maximum plasma concentration (Tmax), AUC from time zero to the time of the last quantifiable plasma concentration (AUC0-last), AUC from time zero extrapolated to infinity (AUCinf), mean residence time (MRT), half-life (T½). AUCs were calculated using a linear trapezoidal rule, and a uniform weight was performed as the first general approach. Graphical concentration-time curves are produced after Log transformation (PK Solver 2.0, Excel 2007 Microsoft add-in). The ke was estimated from the terminal part of the log-concentration time plot, which included at least three data points excluding the Cmax. If the terminal phase regression based on R2 was less than 0.85, then the T½ and the AUC0-inf were not reported.

MCF7 cells = experiment: Dose-response curves on proliferating and Tamoxifen-induced senescent MCF7 (Incucyte); assay type: cell-based, Homo sapiens
From the text: IMR90 and WI38 lung fibroblasts were purchased from ECACC‐Merck. Human bone marrow (BM)‐derived mesenchymal stromal cells (MSCs) were purchased from Lonza. Human umbilical vein endothelial cells (HUVECs) are primary cells obtained from a pool of donors purchased from Clonetics (Lonza). Murine ear fibroblasts (MearFs) were obtained from C57BL/6J mice maintained in the INRCA “Specific Pathogen Free” (SPF) animal facility. MCF7 breast cancer cells were purchased from ATCC. For dose–response curves, IMR90 and WI38 were induced to senescence through replicative passages; MSCs, HUVECs, and MearFs senescence was induced with Doxorubicin; MCF7 senescence was induced with 4‐Hydroxytamoxifen (Lee et al. [2014]). The EC50 was calculated using GraphPad Prism 10 software. All treatment specifications are reported in the extended section.
MCF7 cell line (ATCC; HTB-22, Homo sapiens, breast cancer) was purchased from ATCC; cells were grown in MEM medium (Corning, New York, USA, #15-010-CVR) supplemented with 10% FBS (Gibco, Invitrogen, Carlsbad, CA, USA, #10270106), 1% glutamine (Corning #25005-CI), 1% penicillin and streptomycin (Corning #30002-CI). Cells were incubated at 37 °C with 5% CO2. Senescent status induction: MCF7 were plated 24 h before the treatment with 4-Hydroxytamoxifen (TAM) 10 μM to induce the senescence described by (Lee et al. 2014). Control cultures were treated with equal volumes of 75% ethanol as the vehicle. The treatment with TAM lasts 96 h, after which the cells have been washed and treated with the senolytic drugs K5 10 µM for another 96 h. The treatment with the senolytic compounds has been renewed at 48 h. Cell mortality and vitality curves after treatment with K5 (10 μM, orange) or Vehicle (DMSO, grey) were monitored using the Incucyte live-cell Analysis system (Sartorius, Goettingen, Germany). The estimated Senolytic index (SI) was calculated as the ratio between the EC50 in proliferating cells and the EC50 in senescent cells, extrapolated using GraphPad Prism 10 software.

[2] = plasma, oral 30 mg/kg, CD1 mouse

For `Cc1ccccc1-n1c(=O)n(Cc2ccccc2)c(=O)c2[nH]cnc21` [Compound K5, 1-benzyl-3-(2-methylphenyl)-7H-purine-2,6-dione], the Kp ([1]; brain, IV 5 mg/kg, read-out: distribution in the brain) was 0.35, the Kp ([1]; kidney, IV 5 mg/kg, read-out: distribution in the kidney) was 1.31 and the distribution volume ([1]; IV 5 mg/kg, CD1 mouse) was “high”. For the same molecule, the “time of Cmax” value ([1]; oral 30 mg/kg, CD1 mouse) was 10 min, the clearance ([1]; plasma, IV 5 mg/kg, CD1 mouse) was 38 mL/min/kg and the half-life ([1]; plasma, IV 5 mg/kg, CD1 mouse) was 0.217 h. The bioavailability ([1]; plasma, oral 30 mg/kg vs IV 5 mg/kg, CD1 mouse) was 54%, the Cmax [1, 2] was 2800 ng/mL and the half-life [1, 2] was roughly 5 h. The MRT ([1]; plasma, oral 30 mg/kg, CD1 mouse, read-out: mean residence time (MRT) (converted)) was roughly 5 h, the EC50 (MCF7 cells; Homo sapiens, MCF7, 96 h, MCF7, K5 96 h, read-out: EC50 proliferating cells) was 167 µM and the EC50 (MCF7 cells; Homo sapiens, MCF7, 96 h, MCF7, TAM 10 μM 96 h, then K5 96 h, read-out: EC50 senescent cells) was 24.4 µM. For the same molecule, the “Senolytic evidence (no, partly/yes)” value (MCF7 cells; MCF7, 4-hydroxy-tamoxifen) was “Yes”, the EC50 (MCF7 cells; MCF7, K5 96 h, read-out: EC50 proliferating cells) was 167 µM and the EC50 (MCF7 cells; MCF7, TAM 10 μM 96 h, then K5 96 h, read-out: EC50 senescent cells) was 24 µM. The “Senolytic index (estimated)” value (MCF7 cells; MCF7, SI = EC50 in proliferating cells/EC50 senescent cells) was 7.

— paper PMC12266748, “A Xanthine Derivative With Novel Heat Shock Protein 90‐Alpha Inhibitory and Senolytic Properties” (Aging Cell, 2025)
